Patent US20120231497A1, “SELECTIVE ENZYMATIC […] C-TERMINAL TERT-BUTYL ESTERS OF PEPTIDES” (N.V. Organon, priority 2006, published 2012)
Marks after values point to notes of the source that are not given here. Square brackets hold non-standard residues; d marks the D form. * marks the point of attachment. His(Trt) = N[C@@H](Cc1cn(C(c2ccccc2)(c2ccccc2)c2ccccc2)cn1)C(=O)O; Pbf = Cc1c(C)c(S(=O)(=O)*)c(C)c2c1OC(C)(C)C2; code Z = not defined here; Cbz = O=C(OCc1ccccc1)*; Boc = CC(C)(C)OC(=O)*; OtBu = CC(C)(C)O*; tBu = CC(C)(C)*

Columns and labels:
Assay type in all cases: biochemical
Alcalase CLEA [1] = target: T1, Alcalase CLEA (Bacillus licheniformis, UniProt P00780); assay: Hydrolysis of tetrapeptide tert-butyl ester by Alcalase CLEA in NMP/buffer (Example 2); conditions: 0.05 mmol, 5 mg Alcalase CLEA, NMP/phosphate buffer pH 8 1:1, 40° C., 17 h
T1 construct: purchased CLEA Technologies B. V., Delft, The Netherlands
T1 sequence (P00780 106-379): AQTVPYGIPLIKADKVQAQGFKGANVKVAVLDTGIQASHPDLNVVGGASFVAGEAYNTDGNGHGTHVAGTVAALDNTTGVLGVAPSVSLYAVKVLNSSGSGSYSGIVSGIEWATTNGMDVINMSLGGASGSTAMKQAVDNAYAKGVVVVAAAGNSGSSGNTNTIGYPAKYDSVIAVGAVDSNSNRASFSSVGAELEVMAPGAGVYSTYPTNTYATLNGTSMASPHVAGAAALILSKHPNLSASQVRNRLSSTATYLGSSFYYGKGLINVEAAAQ
Procedure: 0.05 mmol of Boc-Gly-Phe-Phe-Leu-OBu^t was dissolved in a thermostated mixture of 2.5 ml NMP and 2.5 ml phosphate buffer 0.1M pH 8. To this solution 5 mg of Alcalase CLEA were added. The reaction mixture was incubated at 40° C. for a total of 17 hours. Substrate conversion is determined by HPLC. The reaction resulted after 17 h in >95% yield of Boc-Gly-Phe-Phe-Leu-OH.

Alcalase CLEA [2] = target: T1, Alcalase CLEA; assay: Identification of peptide substrates susceptible to endopeptidic cleavage (Example 5)
Procedure: General procedure Alcalase CLEA:
0.1 mmol of each of the tetrapeptides (or tetrapeptide mixtures) were dissolved in 2.5 ml DMF. To this solution 5 mg of enzyme were added along with 2.5 ml phosphate buffer 0.1 M pH 7 and were added to the previous solution. The reaction mixture was incubated at 40° C. Reaction mixtures were analysed after 2 hours and 6 hours by HPLC. In case the reaction had not reached completion additional portions of enzyme [5 mg each] were added at the end of six hours and overnight (approx. 24 hours of reaction). The last aliquot was analysed by LC/MS to verify the presence of the desired compound and of any impurities being Z-Val-Val-X-OH and/or H-X-Leu-OH.

Subtilisin A [3] = target: T2, Subtilisin A (Bacillus licheniformis, UniProt P00780); assay: Deprotection of model dipeptides by Subtilisin A (Example 3); conditions: 0.1 mmol, 5 mg enzyme, 50 v/v % DMF/phosphate buffer pH 7, 40° C., 6 hours
T2 construct: purchased Novozymes
T2 sequence (P00780 106-379): T1 sequence (P00780 106-379)
Procedure: (§1) General Procedure Subtilisin A:
0.1 mmol of each of the peptides was dissolved in 2.5 ml DMF. 5 mg of enzyme were dissolved in 2.5 ml phosphate buffer 0.1 M pH 7 and were added to the peptide solution. The reaction mixture was incubated at 40° C. for a total of six hours. The reaction mixtures were analysed after 6 hours using HPLC and LC/MS.

[4] = target: T3, subtilisin A (S. Carlsberg) (Bacillus licheniformis, UniProt P00780); assay: Hydrolysis of C-terminal tert-butyl esters by free subtilisin A (Example 1); conditions: 0.1 mmol peptide, 5 mg enzyme, DMF/phosphate buffer 0.1 M 1:1, 40° C., 2 hours, HPLC
T3 construct: purchased Sigma Aldrich
T3 sequence (P00780 106-379): T1 sequence (P00780 106-379)
Procedure: as §1
0.1 mmol of each of the peptides was dissolved in a thermostated mixture of 2.5 ml DMF and 2.5 ml phosphate buffer 0.1 M pH 7.5 mg of enzyme were added to the peptide solution. The reaction mixture was incubated at 40° C. for a total of two hours. The reaction mixtures were analysed after 2 hours using HPLC.

Alcalase CLEA [5] = target: T1, Alcalase CLEA; assay: Deprotection of model dipeptides by Alcalase CLEA (Example 3); conditions: 0.1 mmol, 5 mg enzyme, 50 v/v % DMF/phosphate buffer pH 7, 40° C., 6 hours
From the text: A person skilled in the art can easily identify suitable substrates, for instance by performing a simple test hydrolysis of a selected peptide comprising a C-terminal tert-butyl ester functionality under suitable conditions as described herein before and following conversion e.g. by HPLC techniques. It has been found by hydrolysis of model dipeptides of the general structure Z-Val-X-OBu^t in the presence of Alcalase CLEA and 50% v/v of DMF (see for details Example 3) that the reactivity for these model substrates comprising a C-terminal tert-butyl ester functionality can be divided into four categories:
General Procedure Alcalase CLEA:
0.1 mmol of each of the peptides was dissolved in 2.5 ml DMF. To this solution 5 mg of enzyme were added along with 2.5 ml phosphate buffer 0.1M pH 7. The reaction mixture was incubated at 40° C. for a total of six hours. The reaction mixtures were analysed after 6 hours using HPLC and LC/MS.

Subtilisin A [6] = target: T2, Subtilisin A; assay: Optimization of the amount of enzyme (Example 4); conditions: 2 h
Procedure: 0.1 mmol of each of the peptides was dissolved in 2.5 ml IDMF. Subtilisin A was dissolved in 2.5 ml phosphate buffer 0.1 M pH 7 and added to the peptide solution. The reaction mixture was incubated at 40° C. The reaction mixtures were sampled at the indicated reaction times and analysed by HPLC. When needed extra portions of enzyme were added at 2-hour intervals.

Alcalase CLEA [7] = target: T1, Alcalase CLEA; assay: Scaling up of the procedure (Example 6); conditions: 1 mmol, 3x25 mg Alcalase CLEA, 50% DMF, pH 7, 40° C., 6 days
Procedure: To a stirred solution of 606 mg (1 mmol) Z-Val-Trp-Leu-OBu^t in 25 ml DMF 25 mg of Alcalase CLEA were added along with 25 ml of phosphate buffer 0.1 M pH 7. The mixture was stirred at 40° C. The reaction progress was monitored by HPLC. Extra portions of enzyme (25 mg of Alcalase CLEA each) were added after 24 hours and after 48 hours. After 6 days the reaction was stopped. The reaction mixture was acidified to pH 2 and DMF was evaporated. The product was extracted with ethyl acetate. The organic layer was dried using sodium sulphate, concentrated in vacuo and the final product precipitated from heptane.

[8] = 48 h, extra 5 mg enzyme portions after 6 h and approx. 24 h
[9] = 24 h, extra 5 mg enzyme after 6 h
[10] = 2 h, 5 mg Alcalase CLEA, 50% DMF, pH 7, 40° C.

Boc-Gly-Phe-Phe-Leu-OBu^t (Boc-GFFL-OtBu; SMILES CC(C)C[C@H](NC(=O)[C@H](Cc1ccccc1)NC(=O)[C@H](Cc1ccccc1)NC(=O)CNC(=O)OC(C)(C)C)C(=O)OC(C)(C)C)
yield of Boc-Gly-Phe-Phe-Leu-OH (substrate conversion by HPLC) (Alcalase CLEA [1]): > 95%

Cbz-VVE(OtBu)L-OtBu
Ratio Desired Product vs. Substrate (% area) (Alcalase CLEA [2]; [8]): 100/0

Cbz-VVK(Boc)L-OtBu
Ratio Desired Product vs. Substrate (% area) (Alcalase CLEA [2]; [8]): 100/0

Cbz-VVR(Pbf)L-OtBu
Ratio endopeptidase Impurity vs. Desired Product (% area), impurity H-X-Leu-OH (Alcalase CLEA [2]; 24 h): 1/99 (H-X-Leu-OH)
Ratio Desired Product vs. Substrate (% area) (Alcalase CLEA [2]; [8]): 100/0

Cbz-VVRL-OtBu
Ratio Desired Product vs. Substrate (% area) (Alcalase CLEA [2]; 6 h): 100/0 ^1)

Cbz-VVVL-OtBu
Ratio Desired Product vs. Substrate (% area) (Alcalase CLEA [2]; 6 h): 100/0 ^1)
Ratio Desired Product vs. Substrate (% area) (Alcalase CLEA [2]; [9]): 100/0 ^1)
Ratio Desired Product vs. Substrate (% area) (Alcalase CLEA [2]; [8]): 100/0

Cbz-VVW(Boc)L-OtBu
Ratio Desired Product vs. Substrate (% area) (Alcalase CLEA [2]; [10]): 3/97
Ratio Desired Product vs. Substrate (% area) (Alcalase CLEA [2]; [8]): 100/0

Cbz-Val-Ala-OtBu
Product vs. Substrate (% area), Subtilisin A (Subtilisin A [3]): 100/0
Product/Substrate (% area) [4]: 100/0
Product vs. Substrate (% area), Alcalase CLEA (Alcalase CLEA [5]): 100/0

Cbz-Val-Asn-OtBu
Product vs. Substrate (% area), Alcalase CLEA (Alcalase CLEA [5]): 100/0

Cbz-Val-Gln-OtBu
Product vs. Substrate (% area), Subtilisin A (Subtilisin A [3]): 100/0
Product vs. Substrate (% area), Alcalase CLEA (Alcalase CLEA [5]): 100/0

Cbz-Val-Ile-OtBu
Product vs. Substrate (% area), Subtilisin A (Subtilisin A [3]): 0/100
Product vs. Substrate (% area), Alcalase CLEA (Alcalase CLEA [5]): traces of product

Cbz-Val-Leu-OtBu
Product vs. Substrate (% area), Subtilisin A (Subtilisin A [3]): 100/0
Product vs. Substrate (% area) (Subtilisin A [6]; 2.5 mg enzyme): 100/0
Product vs. Substrate (% area) (Subtilisin A [6]; 5 mg enzyme): 100/0
Product vs. Substrate (% area), Alcalase CLEA (Alcalase CLEA [5]): 98/2

Cbz-Val-Met-OtBu
Product vs. Substrate (% area), Subtilisin A (Subtilisin A [3]): 100/0

Cbz-Val-Pro-OtBu
Product vs. Substrate (% area), Subtilisin A (Subtilisin A [3]): 0/100
Product vs. Substrate (% area), Alcalase CLEA (Alcalase CLEA [5]): 0/100

Cbz-Val-Ser-OtBu
Product vs. Substrate (% area), Subtilisin A (Subtilisin A [3]): 100/0

Cbz-Val-Thr(tBu)-OtBu
Product vs. Substrate (% area), Subtilisin A (Subtilisin A [3]): 0/100
Product vs. Substrate (% area), Alcalase CLEA (Alcalase CLEA [5]): 0/100

Cbz-Val-Trp-Leu-OtBu
endopeptidase-related impurities in the final compound (HPLC and LC/MS) (Alcalase CLEA [7]): No endopeptidase-related impurities were identified

Cbz-Val-[His(Trt)]-OtBu
Product vs. Substrate (% area), Subtilisin A (Subtilisin A [3]): 0/100
Product vs. Substrate (% area), Alcalase CLEA (Alcalase CLEA [5]): 0/100

Z-Val-Val-Ala-Leu-OBu^t ({code Z}-VVAL-OtBu; reading uncertain; also: printed as Z-Val-Val-Ala-Leu-OBu^t) [model tetrapeptide Z-Val-Val-X-Leu-OBu^t, X=Ala, tested in mix A]
Ratio Desired Product vs. Substrate (% area) (Alcalase CLEA [2]; 6 h): 100/0 ^1)

Z-Val-Val-Asn-Leu-OBu^t ({code Z}-VVNL-OtBu; reading uncertain; also: printed as Z-Val-Val-Asn-Leu-OBu^t) [model tetrapeptide Z-Val-Val-X-Leu-OBu^t, X=Asn, tested in mix B]
Ratio Desired Product vs. Substrate (% area) (Alcalase CLEA [2]; [10]): 100/0
Ratio Desired Product vs. Substrate (% area) (Alcalase CLEA [2]; 6 h): 100/0
Ratio Desired Product vs. Substrate (% area) (Alcalase CLEA [2]; [9]): 100/0
Ratio Desired Product vs. Substrate (% area) (Alcalase CLEA [2]; [8]): 100/0

Z-Val-Val-Gln-Leu-OBu^t ({code Z}-VVQL-OtBu; reading uncertain; also: printed as Z-Val-Val-Gln-Leu-OBu^t) [model tetrapeptide Z-Val-Val-X-Leu-OBu^t, X=Gln, tested in mix A]
Ratio Desired Product vs. Substrate (% area) (Alcalase CLEA [2]; 6 h): 100/0 ^1)

Z-Val-Val-Leu-Leu-OBu^t ({code Z}-VVLL-OtBu; reading uncertain; also: printed as Z-Val-Val-Leu-Leu-OBu^t) [model tetrapeptide Z-Val-Val-X-Leu-OBu^t, X=Leu, tested in mix A]
Ratio Desired Product vs. Substrate (% area) (Alcalase CLEA [2]; 6 h): 100/0 ^1)

Z-Val-Val-Met-Leu-OBu^t ({code Z}-VVML-OtBu; reading uncertain; also: printed as Z-Val-Val-Met-Leu-OBu^t)
Ratio endopeptidase Impurity vs. Desired Product (% area), impurity Z-Val-Val-X-OH (Alcalase CLEA [2]; 24 h): 72/28 (Z-Val-Val-X-OH)
Ratio Desired Product vs. Substrate (% area) (Alcalase CLEA [2]; [9]): 100/0

Z-Val-Val-Phe-Leu-OBu^t ({code Z}-VVFL-OtBu; reading uncertain; also: printed as Z-Val-Val-Phe-Leu-OBu^t) [model tetrapeptide Z-Val-Val-X-Leu-OBu^t, X=Phe, tested in mix B]
Ratio Desired Product vs. Substrate (% area) (Alcalase CLEA [2]; [10]): 23/77
Ratio Desired Product vs. Substrate (% area) (Alcalase CLEA [2]; 6 h): 81/19
Ratio Desired Product vs. Substrate (% area) (Alcalase CLEA [2]; [8]): 100/0

Z-Val-Val-Ser-Leu-OBu^t ({code Z}-VVSL-OtBu; reading uncertain; also: printed as Z-Val-Val-Ser-Leu-OBu^t) [model tetrapeptide Z-Val-Val-X-Leu-OBu^t, X=Ser, tested in mix A]
Ratio Desired Product vs. Substrate (% area) (Alcalase CLEA [2]; 6 h): 100/0 ^1)

Z-Val-Val-Trp-Leu-OBu^t ({code Z}-VVWL-OtBu; reading uncertain; also: printed as Z-Val-Val-Trp-Leu-OBu^t) [model tetrapeptide Z-Val-Val-X-Leu-OBu^t, X=Trp, tested in mix D]
Ratio endopeptidase Impurity vs. Desired Product (% area), impurity H-X-Leu-OH (Alcalase CLEA [2]; 24 h): 2/98 (H-X-Leu-OH)
Ratio endopeptidase Impurity vs. Desired Product (% area), impurity H-X-Leu-OH (Alcalase CLEA [2]; 48 h): 6/94 (H-X-Leu-OH)

Z-Val-Val-Tyr-Leu-OBu^t ({code Z}-VVYL-OtBu; reading uncertain; also: printed as Z-Val-Val-Tyr-Leu-OBu^t) [model tetrapeptide Z-Val-Val-X-Leu-OBu^t, X=Tyr, tested in mix B]
Ratio Desired Product vs. Substrate (% area) (Alcalase CLEA [2]; [8]): 100/0
